Active and inactive are the calls of the source. The rule behind the calls is not given here.
Experiments:
SH-SY5Y [1] = assay: cells; type: functional, cell-based; conditions: Homo sapiens, 72 h
Description: Antiproliferative activity against human SH-SY5Y cells harboring ALK F1174L mutant assessed as inhibition of cell proliferation measured after 72 hrs by CCK8 assay

[2] = molecular target: T1, ALK tyrosine kinase receptor (Homo sapiens, UniProt Q9UM73); assay: Inhibition of ALK (unknown origin) at 10 nM preincubated for 10 mins followed by addition of substrate and ATP for 25 mins by caliper EZ reader method; conditions: time 35.0 min
[3] = molecular target: ALK tyrosine kinase receptor (Homo sapiens, UniProt Q9UM73, G1202R)
SH-SY5Y [4] = assay: Antimigratory activity against human SH-SY5Y cells assessed as wound closure at 0.4 uM measured after 48 hrs by cell scratch assay (reference value: 15.1%); type: functional
MDA-MB-231 [5] = assay: Induction of apoptosis in human MDA-MB-231 cells assessed as viable cells at 1 uM measured after 24 hrs by Annexin V-FITC/PI staining based flowcytometry (reference value: 93.14%); type: functional; conditions: read-out: Activity
MDA-MB-231 [6] = assay: Induction of apoptosis in human MDA-MB-231 cells assessed as early apoptotic cells at 1 uM measured after 24 hrs by Annexin V-FITC/PI staining based flowcytometry ( Rvb = […]%); type: functional
MDA-MB-231 [7] = assay: Induction of apoptosis in human MDA-MB-231 cells assessed as necrotic cells at 4 uM measured after 24 hrs by Annexin V-FITC/PI staining based flowcytometry (reference value: 0.98%); type: functional
SH-SY5Y [8] = assay: Induction of apoptosis in human SH-SY5Y cells assessed as viable cells at 1 uM measured after 24 hrs by Annexin V-FITC/PI staining based flowcytometry (reference value: 77.05%); type: functional; conditions: read-out: Activity
MDA-MB-231 [9] = assay: Cell cycle arrest in human MDA-MB-231 cells assessed as accumulation of cells at G2 phase at 2 uM measured after 24 hrs by PI staining based flowcytometry method (reference value: 23.89%); type: functional
MDA-MB-231 [10] = assay: Cell cycle arrest in human MDA-MB-231 cells assessed as accumulation of cells at G1 phase at 4 uM measured after 24 hrs by PI staining based flowcytometry method (reference value: 55.32%); type: functional
SH-SY5Y [11] = assay: Cell cycle arrest in human SH-SY5Y cells assessed as accumulation of cells at S phase at 2 uM measured after 24 hrs by PI staining based flowcytometry method (reference value: 27.69%); type: functional
SH-SY5Y [12] = assay: Cell cycle arrest in human SH-SY5Y cells assessed as accumulation of cells at S phase at 4 uM measured after 24 hrs by PI staining based flowcytometry method (reference value: 27.69%); type: functional
[13] = molecular target: T1, ALK tyrosine kinase receptor; assay: Inhibition of ALK in human MDA-MB-231 cells assessed as inhibition of ALK phosphorylation at Tyr1278 residue at 4 uM measured after 24 hrs by Western blot assay; type: cell-based
[14] = molecular target: T1, ALK tyrosine kinase receptor; assay: Inhibition of human ALK in human SH-SY5Y cells assessed as inhibition of ERK phosphorylation at Thr202/Tyr204 residue at 4 uM measured after 24 hrs by Western blot assay; type: cell-based
HepG2 = assay: Potency index, ratio of ceritinib IC50 to test compound IC50 for human HepG2 cells assessed as inhibition of cell proliferation measured after 72 hrs by CCK8 assay; type: functional
A549 = assay: Potency index, ratio of ceritinib IC50 to test compound IC50 for human A549 cells assessed as inhibition of cell proliferation measured after 72 hrs by CCK8 assay; type: functional
SH-SY5Y [15] = assay: Potency index, ratio of crizotinib IC50 to test compound IC50 for human SH-SY5Y cells harboring ALK F1174L mutant assessed as inhibition of cell proliferation measured after 72 hrs by CCK8 assay; type: functional
MDA-MB-231 [16] = assay: Potency index, ratio of ceritinib IC50 to test compound IC50 for human MDA-MB-231 cells assessed as inhibition of cell proliferation measured after 72 hrs by CCK8 assay; type: functional
MDA-MB-231 [17] = assay: Potency index, ratio of crizotinib IC50 to test compound IC50 for human MDA-MB-231 cells assessed as inhibition of cell proliferation measured after 72 hrs by CCK8 assay; type: functional
[18] = molecular target: T1, ALK tyrosine kinase receptor; assay: Inhibition of ALK in human MDA-MB-231 cells assessed as inhibition of ERK phosphorylation at Thr202/Tyr204 residue measured after 24 hrs by Western blot assay; type: cell-based; conditions: dose 1-4 µM
[19] = molecular target: T1, ALK tyrosine kinase receptor; assay: Inhibition of ALK in human MDA-MB-231 cells assessed as inhibition of Akt phosphorylation at Ser473 residue measured after 24 hrs by Western blot assay; type: cell-based; conditions: dose 1-4 µM
[20] = molecular target: T2, Protein deacetylase HDAC6 (Homo sapiens, UniProt Q9UBN7)
T2 sequence (Q9UBN7 whole entry): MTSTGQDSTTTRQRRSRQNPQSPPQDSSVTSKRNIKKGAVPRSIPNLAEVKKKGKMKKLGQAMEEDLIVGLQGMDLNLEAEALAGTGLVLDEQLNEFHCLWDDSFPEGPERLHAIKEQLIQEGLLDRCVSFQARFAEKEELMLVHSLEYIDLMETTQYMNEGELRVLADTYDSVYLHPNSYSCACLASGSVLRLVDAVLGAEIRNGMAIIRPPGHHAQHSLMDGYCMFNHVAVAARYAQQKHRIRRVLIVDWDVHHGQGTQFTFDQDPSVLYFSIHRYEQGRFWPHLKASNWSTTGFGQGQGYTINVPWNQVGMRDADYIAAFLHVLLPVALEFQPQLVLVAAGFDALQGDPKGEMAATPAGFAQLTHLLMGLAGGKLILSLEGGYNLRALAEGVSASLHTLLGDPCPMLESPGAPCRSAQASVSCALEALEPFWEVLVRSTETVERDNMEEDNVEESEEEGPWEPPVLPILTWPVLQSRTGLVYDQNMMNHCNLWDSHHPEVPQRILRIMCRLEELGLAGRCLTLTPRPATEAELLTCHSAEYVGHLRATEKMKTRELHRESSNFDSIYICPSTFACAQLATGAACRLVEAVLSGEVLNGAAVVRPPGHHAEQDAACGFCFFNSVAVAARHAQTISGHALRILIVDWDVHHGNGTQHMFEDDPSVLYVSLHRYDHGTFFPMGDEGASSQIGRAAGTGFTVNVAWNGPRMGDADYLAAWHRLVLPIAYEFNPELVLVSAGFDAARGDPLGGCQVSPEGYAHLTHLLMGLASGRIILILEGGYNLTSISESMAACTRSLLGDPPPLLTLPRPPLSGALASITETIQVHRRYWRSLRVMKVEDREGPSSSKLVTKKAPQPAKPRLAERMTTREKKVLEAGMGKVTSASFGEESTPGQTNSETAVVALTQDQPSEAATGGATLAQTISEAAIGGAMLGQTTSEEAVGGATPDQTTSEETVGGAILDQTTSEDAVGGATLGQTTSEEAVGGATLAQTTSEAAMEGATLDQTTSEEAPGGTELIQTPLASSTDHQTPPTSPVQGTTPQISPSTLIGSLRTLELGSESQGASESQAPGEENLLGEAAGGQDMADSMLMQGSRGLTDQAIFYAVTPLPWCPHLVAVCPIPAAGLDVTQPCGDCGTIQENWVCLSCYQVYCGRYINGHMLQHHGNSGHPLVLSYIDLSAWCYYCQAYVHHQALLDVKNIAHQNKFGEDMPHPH
Description: Inhibition of HDAC6 (unknown origin)

T1 sequence (Q9UM73 19-1620 limits assumed): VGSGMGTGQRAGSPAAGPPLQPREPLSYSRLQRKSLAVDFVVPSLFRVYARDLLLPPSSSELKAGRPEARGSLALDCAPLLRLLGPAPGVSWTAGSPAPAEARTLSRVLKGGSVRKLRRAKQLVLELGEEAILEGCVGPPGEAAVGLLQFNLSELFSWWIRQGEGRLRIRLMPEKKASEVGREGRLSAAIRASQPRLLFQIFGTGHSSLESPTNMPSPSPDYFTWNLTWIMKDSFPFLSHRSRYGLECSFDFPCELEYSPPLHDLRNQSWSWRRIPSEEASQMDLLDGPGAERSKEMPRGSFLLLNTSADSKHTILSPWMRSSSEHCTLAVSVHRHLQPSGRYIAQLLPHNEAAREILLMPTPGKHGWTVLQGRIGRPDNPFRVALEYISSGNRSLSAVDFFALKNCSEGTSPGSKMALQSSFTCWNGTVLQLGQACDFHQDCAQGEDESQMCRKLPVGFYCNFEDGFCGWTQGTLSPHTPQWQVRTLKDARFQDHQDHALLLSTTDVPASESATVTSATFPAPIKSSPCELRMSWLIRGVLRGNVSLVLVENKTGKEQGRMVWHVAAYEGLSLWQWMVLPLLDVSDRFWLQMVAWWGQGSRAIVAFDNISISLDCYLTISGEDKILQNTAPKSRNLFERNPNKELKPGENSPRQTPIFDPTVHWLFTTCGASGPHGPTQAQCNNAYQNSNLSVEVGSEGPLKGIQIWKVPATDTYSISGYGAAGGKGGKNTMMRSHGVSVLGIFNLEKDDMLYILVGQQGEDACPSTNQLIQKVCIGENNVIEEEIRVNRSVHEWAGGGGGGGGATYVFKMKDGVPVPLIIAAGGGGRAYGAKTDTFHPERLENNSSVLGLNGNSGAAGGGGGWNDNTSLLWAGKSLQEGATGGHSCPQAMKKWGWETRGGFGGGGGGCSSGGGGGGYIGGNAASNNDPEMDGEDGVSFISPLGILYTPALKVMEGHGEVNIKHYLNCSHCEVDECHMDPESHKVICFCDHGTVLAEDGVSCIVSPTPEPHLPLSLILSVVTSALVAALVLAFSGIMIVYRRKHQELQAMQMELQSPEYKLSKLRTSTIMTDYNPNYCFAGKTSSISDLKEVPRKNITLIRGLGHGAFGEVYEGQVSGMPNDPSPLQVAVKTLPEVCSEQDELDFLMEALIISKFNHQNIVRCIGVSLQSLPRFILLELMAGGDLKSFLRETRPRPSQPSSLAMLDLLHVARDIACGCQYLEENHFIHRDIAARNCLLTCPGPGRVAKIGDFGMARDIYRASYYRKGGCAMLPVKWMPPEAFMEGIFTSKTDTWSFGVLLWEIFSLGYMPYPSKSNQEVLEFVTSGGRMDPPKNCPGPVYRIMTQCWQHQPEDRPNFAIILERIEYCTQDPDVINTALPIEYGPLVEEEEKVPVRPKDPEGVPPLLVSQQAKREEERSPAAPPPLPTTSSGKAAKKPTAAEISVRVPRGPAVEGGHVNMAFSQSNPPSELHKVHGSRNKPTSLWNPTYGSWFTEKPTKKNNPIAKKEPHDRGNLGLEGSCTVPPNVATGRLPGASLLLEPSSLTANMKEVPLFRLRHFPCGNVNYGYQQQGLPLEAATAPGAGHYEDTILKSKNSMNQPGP
ALK tyrosine kinase receptor (Homo sapiens, UniProt Q9UM73, G1202R), sequence (Q9UM73 19-1620 G1202R limits assumed): as the sequence (Q9UM73 19-1620 limits assumed) above, with G1184R counted along it

- IC50 (SH-SY5Y [1]): 110 nM
- inhibition [2]: 80.8%
- IC50 [3]: 0.4 nM
- inhibition [13]: Active
- inhibition [14]: Active
- inhibition [18]: Dose-Dependent Effect
- inhibition [19]: Dose-Dependent Effect
- IC50 [20]: 4.4 nM
Compound: CC(C)S(=O)(=O)c1ccccc1Nc1nc(Nc2ccc(NC(=O)CCCCCCC(=O)NO)cc2)ncc1Cl
- Activity (SH-SY5Y [4]): 2.8%
- viability at 1 µM (MDA-MB-231 [5]): 87.9%
- Activity (MDA-MB-231 [6]): 1.96%
- Activity (MDA-MB-231 [7]): 3.86%
- viability at 1 µM (SH-SY5Y [8]): 87.9%
- Activity (MDA-MB-231 [9]): 49.05%
- Activity (MDA-MB-231 [10]): 34.64%
- Activity (SH-SY5Y [11]): 20.49%
- Activity (SH-SY5Y [12]): 7.55%
- Ratio IC50 (HepG2): 3
- Ratio IC50 (A549): 3
- Ratio IC50 (SH-SY5Y [15]): 3
- Ratio IC50 (MDA-MB-231 [16]): 3
- Ratio IC50 (MDA-MB-231 [17]): 3
